One series is described as follows: in vitro. The following applies: liver microsomes. A general note: Microsomes from liver hold many membrane-bound enzymes, among them those of drug oxidation.
Series [1] is described as follows: Binding to plasmatic proteins. The following applies: plasma.
A short description of a further series: Microsomal stability. The following applies: hepatic microsomes.
For series [2], the system named is choline transporters. The series is described as follows: In vitro determination of IC50: inhibition of [^3H]choline chloride accumulation in PC-3 cells. Type of series: cell-based. The following applies: cell line PC-3 (human prostate carcinoma); [^3H]choline chloride 0.81 × 10^-6 M; 60 min at 37 °C. Here is the method: IC50 value corresponds to a concentration of the given analog of choline which reduces the accumulation of choline chloride, the natural ligand of choline transporterss, to 50 % of the maximum value. For the assay, the tritium labeled choline chloride, i.e. [^3H]choline chloride, was used. The assay was performed in vitro on the cell line PC-3 derived from a human prostate carcinoma, which is known to overexpress choline transporters. […] As the negative control, a cell line of human ovarian carcinoma SKOV3 prepared to the confluence of 90 % in 24-well plates was used.
The cultivation medium was removed from the thus prepared cells in cultivation plates and the cells were rinsed with phosphate buffered saline (PBS). Subsequently, 0.3 mL of "incubation buffer" (25 mM Tris/HCl, 5.4 mM KCl, 1.8 mM CaCl2, 0.8 mM MgSO4, 5 mM glucose, 140 mM NaCl, pH adjusted to 7.4) was added to the cells. Then 0.1 mL of the solution of the tested substance (analog of choline) in the incubation buffer was added to the PC-3 cells in such concentrations, that after adding [^3H]choline chloride the resulting concentrations of the tested analog would be following: 0 M, 10^-8 M, 10^-7 M, 10^-6 M, 5 × 10^-6 M, 10^-5 M, 10^-4 M, 5 × 10^-4 M, 10^-3 M, 5×10^-3 M. Each concentration was tested in triplicate.
Subsequently, all cells prepared in this manner (PC-3 and SKOV3) were incubated with the analogs of choline for 15 minutes at the temperature of 37 °C.
Then 0.1 mL of the solution of the [^3H]choline chloride in the incubation buffer was added to all cell-containing wells, so that 0.1 mL of the solution had the activity of 15 kBq and that the final concentration of the [^3H]choline chloride in the medium with the cells was 0.81 × 10^-6 M. The cells were then incubated at 37 °C for a period of 60 min. After the incubation, all buffer solution was removed from the cells. The cells were rinsed with PBS, which was subsequently removed, and 0.2 mL of aqueous NaOH solution (0.1 M) was added to each well. The cells were incubated with sodium hydroxide for 30 min at 37 °C. The lysate was then homogenized with a pipette and 10 µL of the lysate were used for the determination of protein concentration by bicinchonic acid assay (BCA).
The remaining lysate (180 µL) was quantitatively transferred into scintillation vials containing a previously prepared scintillation solution (2 mL of the solution in each vial). Each well was then additionally rinsed with 0.2 mL of pure water and this solution was added to the corresponding scintillation vials. Scintillation vials were closed and their content was stirred on a shaker.
To another three scintillation vials containing scintillation solution (2 mL of the solution in each vial) the standard samples of [^3H]choline chloride were added (i.e. 10 µl of the [^3H]choline chloride solution together with 180 µl of aqueous NaOH solution (0.1 M) and 200 µl of water). The vials were closed and their content was stirred on the shaker.
Subsequently, radioactivity of each scintillation vial was measured using a liquid scintillation counter (Tri-Carb 2910TR Liquid Scintillation Counter, PerkinElmer). The recorded counts per second (cps) were then used to calculate the accumulation of [^3H]choline chloride in the individual cell samples. […] These values were used to construct a sigmoid curve of dependence between the rate of [^3H]choline chloride accumulation and the competing ligand (analog of choline) concentration(inhibition curve, Figure 2). The IC50 values were calculated from these inhibition curves.

Series [3] relates to choline transporters. The following applies: published data, Müller S. A. et al. (2009); cited from earlier work.

Broadly, the microsomal CLint is a measure of how fast metabolising enzymes remove a compound, apart from limits set by blood flow. Lower therefore signals slow turnover. By fraction unbound is commonly meant free concentration divided by total concentration. Read a low fraction unbound as little free substance. For orientation: IC50 means the concentration at which inhibition is half-maximal.

Each structure is given as a SMILES string. Read-outs that look alike come from different tables or passages of the source.

Turning to `COc1ccc(CC[N+]23CCC(CC2)C(O)C3)cc1I.Cc1ccc(S(=O)(=O)[O-])cc1` (stereo not shown) [Example 2, 3-hydroxy-1-[2-(3-iodo-4-methoxyphenyl)ethyl]quinuclidin-1-ium 4-methylbenzenesulfonate], the microsomal CLint in “in vitro” came to 14.2 µL/min/mg. In addition, the “Plasma stability (120 min)” value in the series “Stability in the plasma” was determined as 59.0%. The fraction unbound in series [1] is 0.748. Besides, in the series “Microsomal stability”, the “Microsomal stability t1l2” value worked out at 97.6 min. In the series on choline transporters [2], this compound displayed an IC50 of 92 µM.

In the case of `COc1ccc(CC[N+](C)(C)CCO)cc1I.Cc1ccc(S(=O)(=O)[O-])cc1` [Example 1, (2-hydroxyethyl)-[2-(3-iodo-4-methoxyphenyl)ethyl]-dimethylammonium 4-methylbenzenesulfonate], the intrinsic metabolic clearance (microsomal CLint) in the series “in vitro” is 8.4 µL/min/mg. For the same compound, in “Stability in the plasma”, the “Plasma stability (120 min)” value stood at 28.4%. Further, the fraction unbound in series [1] is 0.805. The “Microsomal stability t1l2” value in “Microsomal stability” is reported as 165.0 min. The same compound registered an IC50 with choline transporters [2] of 47 µM.

As for `COc1c(I)cc(CC[N+](C)(C)CCO)cc1I.Cc1ccc(S(=O)(=O)[O-])cc1` [Example 3, (2-hydroxyethyl)-[2-(3,5-diiodo-4-methoxyphenyl)ethyl]-dimethylammonium 4-methylbenzenesulfonate], the microsomal CLint in the series “in vitro” amounted to 1040 µL/min/mg. Moreover, the “Plasma stability (120 min)” value in the series “Stability in the plasma” came to 76.4%. In series [1], the fraction unbound is 0.512. In the series “Microsomal stability”, the “Microsomal stability t1l2” value is 1.3 min. The compound further returned an IC50 in the series on choline transporters [2] of 25 µM.

Turning to `C[N+]1(Cc2ccccc2I)CCCC(O)C1.Cc1ccc(S(=O)(=O)[O-])cc1` (stereo not shown) [Example 16, 3-hydroxy-1-(2-iodobenzyl)-1-methylpiperidin-1-ium 4-methylbenzenesulfonate], the intrinsic metabolic clearance (microsomal CLint) in “in vitro” turned out to be 11.6 µL/min/mg. In addition, the “Plasma stability (120 min)” value in “Stability in the plasma” worked out at 79.0%. In series [1], this compound showed a fraction unbound of 0.956. In addition, the “Microsomal stability t1l2” value in “Microsomal stability” was 119.5 min. This compound came in with an IC50 in the series on choline transporters [2] of 240 µM.

`C[N+](C)(CCO)Cc1ccccc1I.Cc1ccc(S(=O)(=O)[O-])cc1` [Example 19, (2-hydroxyethyl)-(2-iodobenzyl)-dimethylammonium 4-methylbenzenesulfonate]: the microsomal CLint in the series “in vitro” amounted to 166 µL/min/mg. Moreover, the “Plasma stability (120 min)” value in “Stability in the plasma” is reported as 91.3%. Besides, in series [1], the fraction unbound was 0.661. For the same compound, the “Microsomal stability t1l2” value in the series “Microsomal stability” is reported as 8.3 min. Also, the IC50 with choline transporters [2] stood at 160 µM.

In “in vitro”, `C[N+](C)(CCO)CCc1ccc(I)cc1.Cc1ccc(S(=O)(=O)[O-])cc1` [Example 5, (2-hydroxyethyl)-[2-(4-iodophenyl)ethyl]-dimethylammonium 4-methylbenzenesulfonate] gave a microsomal CLint of 88.6 µL/min/mg. Further, the “Plasma stability (120 min)” value in “Stability in the plasma” was determined as 43.0%. The fraction unbound in series [1] is 0.653. Also, the “Microsomal stability t1l2” value in “Microsomal stability” was found to be 15.6 min. The same compound returned an IC50 in the series with choline transporters [2] of 7.4 µM.

In “in vitro”, `C[N+]1(CCc2ccc(I)cc2)CCCC(O)C1.Cc1ccc(S(=O)(=O)[O-])cc1` (stereo not shown) [Example 6, 3-hydroxy-1-[2-(4-iodophenyl)ethyl]-1-methylpiperidin-1-ium 4-methylbenzenesulfonate] came in with a microsomal CLint of 1230 µL/min/mg. In addition, the “Plasma stability (120 min)” value in “Stability in the plasma” is listed as 81.3%. The compound also had an unbound share (fraction unbound) in series [1] of 0.735. For the same compound, the “Microsomal stability t1l2” value in the series “Microsomal stability” was 1.1 min. Half-maximal inhibition in the series with choline transporters [2] (IC50) was put at 83 µM.

For `Cc1ccc(S(=O)(=O)[O-])cc1.OCC[N+]1(CCc2ccc(I)cc2)CCCC1` [Example 7, 1-(2-hydroxyethyl)-1-[2-(4-iodophenyl)ethyl]pyrrolidin-1-ium 4-methylbenzenesulfonate], the microsomal CLint in “in vitro” was determined as 90.6 µL/min/mg. In the series “Stability in the plasma”, the “Plasma stability (120 min)” value amounted to 97.6%. The same compound showed a fraction unbound in series [1] of 0.833. Moreover, the “Microsomal stability t1l2” value in “Microsomal stability” stood at 15.3 min. In the series on choline transporters [2], this compound showed an IC50 of 16 µM.

On to `C[N+]1(C)CCOC(O)(c2ccc(-c3ccc(C4(O)C[N+](C)(C)CCO4)cc3)cc2)C1` (stereo not shown) [Hemicholinium-3, reference compound], for which the figures for the IC50 with choline transporters [3] and with choline transporters [2] were 17 µM and 29 µM, respectively.

In turn, `Cc1ccc(S(=O)(=O)[O-])cc1.OC1C[N+]2(CCc3ccc(I)cc3)CCC1CC2` (stereo not shown) [Example 8, 3-hydroxy-1-[2-(4-iodophenyl)ethyl]quinuclidin-1-ium 4-methylbenzenesulfonate] gave a microsomal CLint in the series “in vitro” of 39.8 µL/min/mg. Moreover, the “Plasma stability (120 min)” value in “Stability in the plasma” stood at 89.9%. In series [1], this compound showed a fraction unbound of 0.717. In addition, in the series “Microsomal stability”, the “Microsomal stability t1l2” value is listed as 34.8 min. Further, it took 120 µM to reach half-maximal inhibition in the series on choline transporters [2] (IC50).

As for `Cc1ccc(S(=O)(=O)[O-])cc1.OCC[N+]1(Cc2ccccc2I)CCCCC1` [Example 14, 1-(2-hydroxyethyl)-1-(2-iodobenzyl)piperidin-1-ium 4-methylbenzenesulfonate], in “in vitro”, the microsomal CLint turned out to be 22.6 µL/min/mg. Further, the “Plasma stability (120 min)” value in the series “Stability in the plasma” is 80.7%. Also, the fraction unbound in series [1] is 0.831. The “Microsomal stability t1l2” value in “Microsomal stability” came to 61.3 min. This compound also returned an IC50 with choline transporters [2] of 190 µM.
